Key:
Uromyces viciae-Fabae = test: Uromyces viciae-fabae / field bean / leaf disc preventative (faba-bean rust); type: in vivo; conditions: foliar, 288 h, 100 ppm in the applied formulation, field bean leaf discs, assessed 12 days after application, read-out: disease control compared to untreated control leaf discs
Procedure: Leaf disks or leaf segments of various plant species are cut from plants grown in a greenhouse. The cut leaf disks or segments are placed in multiwell plates (24-well format) onto water agar. The leaf disks are sprayed with a test solution before (preventative) or after (curative) inoculation. Compounds to be tested are prepared as DMSO solutions (max. 10 mg/mL) which are diluted to the appropriate concentration with 0.025% Tween20 just before spraying. The inoculated leaf disks or segments are incubated under defined conditions (temperature, relative humidity, light, etc.) according to the respective test system. A single evaluation of disease level is carried out 3 to 14 days after inoculation, depending on the pathosystem. Percent disease control relative to the untreated check leaf disks or segments is then calculated.
Example 5: Fungicidal Activity Against Uromyces viciae-Fabael Field Bean/Leaf Disc Preventative (Faba-Bean Rust)
Field bean leaf discs are placed on water agar in multiwell plates (96-well format) and 10 μL of the formulated test compound diluted in acetone and a spreader pipetted onto the leaf disc. Two hours after application leaf discs are inoculated by spraying a spore suspension on the lower leaf surface. The leaf discs are incubated in a climate cabinet at 22° C. with 18 hour days and 70% relative humidity. The activity of a compound is assessed as percent disease control compared to untreated when an appropriate level of disease damage appears in untreated check leaf disks (12 days after application).
The following compounds at 100 ppm in the applied formulation give at least 80% disease control in this test when compared to untreated control leaf discs under the same conditions, which show extensive disease development.

Phakopsora pachyrhizi = Phakopsora pachyrhizi / soybean / leaf disc preventative (Asian soybean rust); type: in vivo; conditions: foliar, 200 ppm in the applied formulation, soybean leaf disks, assessed 12 to 14 days after application, read-out: disease control compared to untreated control leaf disks
Method in brief: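 Soybean leaf discs on water agar were sprayed with formulated compound diluted in water, then inoculated one day later with spore suspension on the lower leaf surface. Held 24-36 h dark at 20° C., 75% RH, then 12 h light/day; percent disease control versus untreated scored 12 to 14 days after application.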

[1] = system: Glomerella lacenarium (Colletotrichum lacenarium); test: Glomerella lacenarium (Colletotrichum lacenarium) liquid culture / cucumber / preventative (anthracnose); type: cell-based; conditions: 20 ppm in the applied formulation, liquid culture in PDB, 24° C., 3 to 4 days after application, read-out: disease control (inhibition of growth, photometric) compared to untreated control
Method in brief: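 Cryostored conidia in potato dextrose broth added to DMSO compound solution in microtiter plates, incubated at 24° C. Growth inhibition read photometrically 3 to 4 days after application, as percent control versus untreated check; compounds tested at 20 ppm.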

[2] = system: Puccinia recondita f. Sp. Tritici; test: Puccinia recondita f. sp. tritici / wheat / leaf disc preventative (brown rust); type: in vivo; conditions: foliar, 200 ppm in the applied formulation, wheat leaf segments, preventative, assessed 7 to 9 days after application, read-out: disease control compared to untreated control leaf disks
Method in brief: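 Wheat cv. Kanzler leaf segments on agar sprayed with formulated compound in water, inoculated with rust spores 1 day later. Incubated at 19° C, 75% rh, 12 h light/12 h dark; percent disease control versus untreated scored 7 to 9 days after application; tested at 200 ppm.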

[3] = system: Puccinia recondita f. Sp. Tritici; test: Puccinia recondita f. sp. tritici / wheat / leaf disc curative (brown rust); type: in vivo; conditions: foliar, 200 ppm in the applied formulation, wheat leaf segments, curative (applied 1 day after inoculation), assessed 6 to 8 days after application, read-out: disease control compared to untreated control leaf disks
Method in brief: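 Wheat cv. Kanzler leaf segments on agar were inoculated with spores, kept dark at 19° C, 75% RH, then sprayed with diluted formulated compound 1 day after inoculation (curative). Incubation continued at 19° C, 75% RH, 12 h light/12 h dark, with percent disease control versus untreated scored 6 to 8 days after application.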

O=C(O)C(=O)Nc1ccc(-c2noc(C(F)(F)F)n2)cc1 [Compound 3.1, 2-oxo-2-[4-[5-(trifluoromethyl)-1,2,4-oxadiazol-3-yl]anilino]acetic acid]
melting point: 184 to 186 °C
pest or weed control at 100 ppm (Uromyces viciae-Fabae): ≥ 80%

CON(C)C(=O)C(=O)Nc1ccc(-c2noc(C(F)(F)F)n2)cc1 [Compound 4.9, N′-methoxy-N′-methyl-N-[4-[5-(trifluoromethyl)-1,2,4-oxadiazol-3-yl]phenyl]oxamide]
pest or weed control at 200 ppm (Phakopsora pachyrhizi): ≥ 80%
melting point: 163 to 165 °C
inhibition at 20 ppm [1]: ≥ 80%
pest or weed control at 100 ppm (Uromyces viciae-Fabae): ≥ 80%
pest or weed control at 200 ppm [2]: ≥ 80%

O=C(Nc1ccc(-c2noc(C(F)(F)F)n2)cc1)C(=O)c1cccc(F)c1 [Compound 1.2, 2-(3-fluorophenyl)-2-oxo-N-[4-[5-(trifluoromethyl)-1,2,4-oxadiazol-3-yl]phenyl]acetamide]
inhibition at 20 ppm [1]: ≥ 80%
pest or weed control at 100 ppm (Uromyces viciae-Fabae): ≥ 80%

O=C(Nc1ccc(-c2noc(C(F)(F)F)n2)cc1)C(=O)NC1CC1 [Compound 4.6, N′-cyclopropyl-N-[4-[5-(trifluoromethyl)-1,2,4-oxadiazol-3-yl]phenyl]oxamide]
pest or weed control at 200 ppm (Phakopsora pachyrhizi): ≥ 80%
melting point: 238 to 241 °C
pest or weed control at 100 ppm (Uromyces viciae-Fabae): ≥ 80%

O=C(NCC1CC1)C(=O)Nc1ccc(-c2noc(C(F)(F)F)n2)cc1 [Compound 4.3, N-(cyclopropylmethyl)-N′-[4-[5-(trifluoromethyl)-1,2,4-oxadiazol-3-yl]phenyl]oxamide]
pest or weed control at 200 ppm (Phakopsora pachyrhizi): ≥ 80%
melting point: 209 to 212 °C
pest or weed control at 100 ppm (Uromyces viciae-Fabae): ≥ 80%

CNC(=O)C(=O)Nc1ccc(-c2noc(C(F)(F)F)n2)cc1 [Compound 4.7, N-methyl-N′-[4-[5-(trifluoromethyl)-1,2,4-oxadiazol-3-yl]phenyl]oxamide]
pest or weed control at 200 ppm (Phakopsora pachyrhizi): ≥ 80%
melting point: 231 to 234 °C
pest or weed control at 100 ppm (Uromyces viciae-Fabae): ≥ 80%
pest or weed control at 200 ppm [3]: ≥ 80%
pest or weed control at 200 ppm [2]: ≥ 80%

CCOC(=O)C(=O)Nc1ccc(-c2noc(C(F)(F)F)n2)cc1 [Compound 2.3, ethyl 2-oxo-2-[4-[5-(trifluoromethyl)-1,2,4-oxadiazol-3-yl]anilino]acetate]
melting point: 164 to 166 °C
pest or weed control at 100 ppm (Uromyces viciae-Fabae): ≥ 80%
pest or weed control at 200 ppm [2]: ≥ 80%

CO/N=C(/C(=O)Nc1ccc(-c2noc(C(F)(F)F)n2)cc1)c1ccccc1 [Compound 2.1, (2E)-2-methoxyimino-2-phenyl-N-[4-[5-(trifluoromethyl)-1,2,4-oxadiazol-3-yl]phenyl]acetamide]
pest or weed control at 100 ppm (Uromyces viciae-Fabae): ≥ 80%

COCCNC(=O)C(=O)Nc1ccc(-c2noc(C(F)(F)F)n2)cc1 [Compound 4.4, N-(2-methoxyethyl)-N′-[4-[5-(trifluoromethyl)-1,2,4-oxadiazol-3-yl]phenyl]oxamide]
pest or weed control at 200 ppm (Phakopsora pachyrhizi): ≥ 80%
melting point: 204 to 205 °C
pest or weed control at 100 ppm (Uromyces viciae-Fabae): ≥ 80%
pest or weed control at 200 ppm [3]: ≥ 80%
pest or weed control at 200 ppm [2]: ≥ 80%

C#CCNC(=O)C(=O)Nc1ccc(-c2noc(C(F)(F)F)n2)cc1 [Compound 4.5, N-prop-2-ynyl-N′-[4-[5-(trifluoromethyl)-1,2,4-oxadiazol-3-yl]phenyl]oxamide]
pest or weed control at 200 ppm (Phakopsora pachyrhizi): ≥ 80%
melting point: 212 to 214 °C
pest or weed control at 100 ppm (Uromyces viciae-Fabae): ≥ 80%

CON=C(C(=O)NCc1ccc(-c2noc(C(F)(F)F)n2)cc1)c1ccccc1 [Compound 2.2, 2-methoxyimino-2-phenyl-N-[[4-[5-(trifluoromethyl)-1,2,4-oxadiazol-3-yl]phenyl]methyl]acetamide]
inhibition at 20 ppm [1]: ≥ 80%
pest or weed control at 100 ppm (Uromyces viciae-Fabae): ≥ 80%
pest or weed control at 200 ppm [2]: ≥ 80%

CN(C)C(=O)C(=O)NCc1ccc(-c2noc(C(F)(F)F)n2)cc1 [Compound 4.2]
pest or weed control at 200 ppm (Phakopsora pachyrhizi): ≥ 80%
melting point: 107 to 112 °C
inhibition at 20 ppm [1]: ≥ 80%
pest or weed control at 100 ppm (Uromyces viciae-Fabae): ≥ 80%
pest or weed control at 200 ppm [3]: ≥ 80%
pest or weed control at 200 ppm [2]: ≥ 80%

O=C(NCc1ccc(-c2noc(C(F)(F)F)n2)cc1)C(=O)N1CCCCC1 [Compound 4.40, 2-oxo-2-(1-piperidyl)-N-[[4-[5-(trifluoromethyl)-1,2,4-oxadiazol-3-yl]phenyl]methyl] acetamide]
pest or weed control at 200 ppm (Phakopsora pachyrhizi): ≥ 80%
melting point: 104 to 108 °C
inhibition at 20 ppm [1]: ≥ 80%
pest or weed control at 200 ppm [3]: ≥ 80%
pest or weed control at 200 ppm [2]: ≥ 80%

Cc1cc(-c2noc(C(F)(F)F)n2)ccc1NC(=O)C(=O)N(C)C [Compound 4.37, N′,N′-dimethyl-N-[2-methyl-4-[5-(trifluoromethyl)-1,2,4-oxadiazol-3-yl]phenyl]oxamide]
pest or weed control at 200 ppm (Phakopsora pachyrhizi): ≥ 80%
melting point: 79 to 89 °C
inhibition at 20 ppm [1]: ≥ 80%
pest or weed control at 200 ppm [3]: ≥ 80%
pest or weed control at 200 ppm [2]: ≥ 80%

CN(C)C(=O)C(=O)Nc1ccc(-c2noc(C(F)(F)F)n2)cc1 [Compound 4.1, N′,N′-dimethyl-N-[4-[5-(trifluoromethyl)-1,2,4-oxadiazol-3-yl]phenyl]oxamide]
pest or weed control at 200 ppm (Phakopsora pachyrhizi): ≥ 80%
melting point: 127 to 130 °C
inhibition at 20 ppm [1]: ≥ 80%
pest or weed control at 100 ppm (Uromyces viciae-Fabae): ≥ 80%
pest or weed control at 200 ppm [3]: ≥ 80%
pest or weed control at 200 ppm [2]: ≥ 80%

CON1CCC(N(C)C(=O)C(=O)NCc2ccc(-c3noc(C(F)(F)F)n3)cc2)CC1 [Compound 4.44, N′-(1-methoxy-4-piperidyl)-N′-methyl-N-[[4-[5-(trifluoromethyl)-1,2,4-oxadiazol-3-yl]phenyl]methyl] oxamide]
pest or weed control at 200 ppm (Phakopsora pachyrhizi): ≥ 80%
melting point: 123 to 125 °C
inhibition at 20 ppm [1]: ≥ 80%
pest or weed control at 200 ppm [3]: ≥ 80%
pest or weed control at 200 ppm [2]: ≥ 80%

CN(C)NC(=O)C(=O)Nc1ccc(-c2noc(C(F)(F)F)n2)cc1 [Compound 4.8, 2-(2,2-dimethylhydrazino)-2-oxo-N-[4-[5-(trifluoromethyl)-1,2,4-oxadiazol-3-yl]phenyl]acetamide]
pest or weed control at 200 ppm (Phakopsora pachyrhizi): ≥ 80%
melting point: 232 to 234 °C
pest or weed control at 100 ppm (Uromyces viciae-Fabae): ≥ 80%

O=C(Nc1ccc(-c2noc(C(F)(F)F)n2)cc1)C(=O)c1ccccc1 [Compound 1.1, 2-oxo-2-phenyl-N-[4-[5-(trifluoromethyl)-1,2,4-oxadiazol-3-yl]phenyl]acetamide]
pest or weed control at 100 ppm (Uromyces viciae-Fabae): ≥ 80%

CCCON(Cc1ccc(-c2noc(C(F)(F)F)n2)cc1)C(=O)C(N)=O [Compound 4.11, N′-propoxy-N′-[[4-[5-(trifluoromethyl)-1,2,4-oxadiazol-3-yl]phenyl]methyl] oxamide]
inhibition at 20 ppm [1]: ≥ 80%
pest or weed control at 100 ppm (Uromyces viciae-Fabae): ≥ 80%
pest or weed control at 200 ppm [2]: ≥ 80%
